How the values were obtained:
[1] = Dissolution of 1,25(OH)2D3 in iodised poppy seed oil; assay type: physicochemical; settings: in one ml of iodised poppy seed oil
Description: For example, 2 mg of 1,25(OH)2 D3 can be readily dissolved in one ml of iodised poppy seed oil.

HepG2 cells [2] = assay: [3H]thymidine incorporation cell proliferation assay; assay type: cell-based, human
Description: (§1) Following exposure of cells to vitamin D3 dissolved in normal or lipiodol (1% v/v) containing media. [^3H]thymidine incorporation assay and the trypan blue exclusion cell count methods were used to determine cell proliferation. To do this, cells were plated in 24 well tissue culture plates at 10^4 cells per well and incubated for 24 h in an incubator at 37° C. with humidified 5% CO2 atmosphere. The, medium was replaced with one containing vitamin D3(10^−11 to 10^−7 M) dissolved in either the normal medium or first dissolved in lipiodol and then mixed thoroughly with the medium to make a final lipiodol concentration of 1% (v/v). For acute dose studies, cells were exposed to one of the two drug containing media for 24 h, which were then replaced with drug free medium for the next four days. Whilst, in chronic treatment, cells were exposed for 5 days to different concentrations of the drug dissolved in one of the media described above. The media were changed on alternate days. At the end of treatment period, cell cultures were assayed for thymidine incorporation by the addition of 0.1μ Ci of [^3H]thymidine to each well for the last 4 h of culture. The amount of radioactivity incorporated into trichloroacetic acid precipitatable material was determined using a β-scintillation counter. Results are plotted as percentage inhibition relative to control. […]

Novikoff = assay: Screening of rat cell lines for responsiveness to vitamin D3; assay type: cell-based; settings: 10^-11-10^-6 M
From the text: (§2) 2. In order to find an appropriate cell line, which would grow in the rat tumor and also be responsive to vitamin D3, rat cell lines, Novikoff and HTC were screened for responsiveness to vitamin D3(10^−11-10^−6 M).

HTC = assay: as above; assay type: cell-based; settings: 10^-6 M, read-out: inhibition of proliferation
From the text: as §2

HepG2 cells [3] = assay: Trypan blue exclusion cell count assay; assay type: cell-based, human
Description: as §1, with “At the end of treatment period, cell cultures were assayed for thymidine incorporation by the addition of 0.1μ Ci of [^3H]thymidine to each well for the last 4 h of culture.” left out, “counter.” for “counter. Results are plotted as percentage inhibition relative to control.”
For the cell count assay, cells were plated in six well plates at a concentration of 5×10^4 cells per well. […] At the end of the treatment period (5 days), cells were trypsinised and counted with a hemocytometer. […]

[4] = Radiolabelled vitamin D3 levels in liver, tumor and plasma after hepatic artery injection in Novikoff tumor bearing rats; assay type: in vivo, Sprague-Dawley rats; settings: 1 hour post injection
Description: Male 300-350 gr. Sprague-Dawely rats were given a general anaesthetic (halothane) and a lapratomy performed. Then 5×10^6 Novikoff cells suspended in 100 μl of medium was instilled beneath the liver capsule using a 26G3/8-tuberculin needle. The abdominal incision was then closed with gut suture.
Animals were then left for 10 days with food and water available ad libitum and monitored daily to assess health and well being. After this period, animals were randomly allocated to one of the treatment groups (n=6 per group) and lapratomy was performed again. A catheter was inserted into the hepatic artery of the animal, through which radiolabelled vitamin D3 or vehicle injections were carried out. The different experimental groups treated were as follows:
After administration of the drug, the catheter was removed and the incision sutured. Animals were euthanased at 1 hour, 1, and 3 days post drug (or vehicle) administration. Just before euthanasing, 3 ml of blood was drawn through cardiac puncture from each animal.
Post mortem, the liver and the tumor of each animal was excised, weighed and frozen in the freezer until analysis. After tissue homogenization, liver, tumor or plasma was extracted with dichloromethane. The amount of hot vitamin D3 present in each sample was determined using a β-counter.

| Compound | amount readily dissolved [1] | thymidine incorporation compared to control, acute treatment (HepG2 cells [2]; 1 day exposure to drug, then 4 days medium without drug) | thymidine incorporation versus control, chronic treatment (HepG2 cells [2]; 5 days exposure, all concentrations (10^-11 to 10^-7 M)) | responsiveness of cell line to vitamin D3 (Novikoff) | inhibition at 1 µM (HTC) | cell number, acute treatment (HepG2 cells [3]; 10^-7 M, 1 day exposure, then 4 days drug free) | cell number, chronic treatment (HepG2 cells [3]; 5 days exposure) | level of radioactivity in liver, tumor and plasma [4] |
| --- | --- | --- | --- | --- | --- | --- | --- | --- |
| C=C1/C(=C\C=C2/CCC[C@]3(C)[C@@H]([C@H](C)CCCC(C)(C)O)CC[C@@H]23)C[C@@H](O)C[C@@H]1O [1,25(OH)2 D3, 1,25-dihydroxycholecalciferol] | 2 mg | – | – | – | – | – | – | – |
| C=C1CC[C@H](O)C/C1=C/C=C1\CCC[C@]2(C)[C@@H]([C@H](C)CCCC(C)C)CC[C@@H]12 [vitamin D3, cholecalciferol] | – | did not show a reduction in thymidine incorporation | significant reduction in thymidine incorporation | non responsive | ~50% | significant reduction in cell number | dose dependant decrease in call number | high in all three samples |
